This is an account of results in patent US11945822B2, “Pyrazolo-triazine and/or pyrazolo-pxrimidine derivatives as selective inhibitor of cyclin dependent kinase” (QURIENT CO., LTD., priority 2018, dated 2024).

Molecules are shown by their SMILES.

One experiment deals with OVCAR-3. Briefly: Cellular OVCAR-3 viability assay (CellTiter-Glo, 72 hours). The format is cell-based. To be noted: Homo sapiens. The source says:
Human T-cell acute lymphoblastic leukemia cell line, MOLT-4 (ATCC, Cat #CRL-1582), Human multiple myeloma cell line, RPMI-8226 (Invitrogen, Cat #22400-089) and MM.1S (ATCC, Cat #CRL-2974), NSCLC (Non-small cell lung cancer) cell line H460 (ATCC, Cat #HTB-177), Human colon colorectal carcinoma cell line HCT116 (ATCC, Cat #CCL-247), Human acute monocytic leukemia cell line MV4-11 (ATCC, Cat #CRL-9591), OVCAR-3 (ATCC, Cat #HTB-161) and A2780 (ECACC, Cat #93112519) were obtained from ATCC. Cells were grown in RPMI-1640 media (Invitrogen, Cat #22400-089) supplemented with 10% FBS (Invitrogen, Cat #10099141) and 1% penicillin/streptomycin (Invitrogen, Cat #15070063) and cultured at 37° C., 5% CO2 in a humidified chamber. All cell lines were routinely tested for mycoplasma.
The effect of the CDK7 inhibitor to inhibit the growth of target cancer cells was evaluated through the 72 hours time period of viability assay. Briefly, the candidate cell line ware plated in 96 well plate at the following density of cells respectively. 1×10^4 cells/well for MOLT-4, RPMI-8226, MV4-11 and MM.1S, 5×10^3 for H460, HCT116 and OVCAR-3 and IX 10^3 for A2780. After 24 hours, the cells were treated with various concentrations of the compound (ranging from 0.0015 uM to 10 uM). DMSO solvent without compound served as a control and final DMSO concentration less than 0.1%. After 72 hours of incubation at 37° C., 5% CO2 incubator, cells were analyzed for the viability using the CellTiter-Glo Luminescent Cell Viability Assay (Promega, Cat #G7570). All viability assays were performed in duplicate and Luminescence was read using an Envision (Perkin Elmer, USA). Data was analyzed using XLfit software.
Background: Cellular ATP, detected with luciferase, serves as a proxy for viable cell number.

The next experiment addresses T1, CDK7/Cyclin H/MNAT1 (Homo sapiens, UniProt P50613).
T1 construct: purchased Invitrogen PR6749B
Briefly: Enzymatic assay for CDK7 (FRET based LANCE Ultra kinase assay). The format is biochemical. To be noted: for IC50: read-out: CDK7 enzymatic activity (IC50 range). The procedure, abridged: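 Inhibition was measured at Km ATP by time-resolved FRET between a Eu anti-phospho antibody and a phosphorylated ULight peptide. The enzyme was the purified CDK7/cyclin complex, and data were curve-fitted.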
(TR-FRET usually uses a lanthanide donor and a delayed reading to cut background.)

A further experiment deals with RPMI-8226. In words: Cellular RPMI-8226 viability assay (CellTiter-Glo, 72 hours). The format is cell-based. To be noted: Homo sapiens. The procedure, abridged:
(§1)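 Luminescent ATP read-out (CellTiter-Glo) after 72 h compound exposure at 37 °C/5% CO2; duplicate wells; vehicle control DMSO <0.1% final; seeding density set per cell line.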

The next experiment concerns MM.1S. In words: Cellular MM.1S viability assay (CellTiter-Glo, 72 hours). Format: cell-based. The following applies: Homo sapiens, MM1.S. The procedure, abridged:
(§2)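 Compound exposure lasted 72 h at 37° C, 5% CO2, over 0.0015–10 uM, DMSO kept under 0.1%, with dosing 24 h after seeding. Seeding: A2780 1×10^3, OVCAR-3 5×10^3, MM.1S 1×10^4 cells/well in 10% FBS RPMI-1640. Duplicate CellTiter-Glo luminescence readout.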

For a further experiment, the system named is A2780. In words: Cellular A2780 viability assay (CellTiter-Glo, 72 hours). Format: cell-based. To be noted: Homo sapiens. In outline: as §2
A further experiment concerns MV4-11. Briefly: Cellular MV4-11 viability assay (CellTiter-Glo, 72 hours). The format is cell-based. To be noted: Homo sapiens. The procedure, abridged:
as §1

Another experiment addresses T2, CDK1/Cyclin B (Homo sapiens, UniProt P06493).
T2 construct: purchased Invitrogen PR4768C
Briefly: Enzymatic assay for CDK1 (FRET based LANCE Ultra kinase assay). The following applies: read-out: CDK1 enzymatic activity (IC50 range). The format is biochemical. In outline:
(§3)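 TR-FRET (LANCE Ultra) kinase assay at ATP Km, ULight-MBP peptide substrate (68 nM), 8-dose 4-fold compound series in DMSO. Enzymes: […]; 60 min at 23° C., stopped with EDTA plus Eu-anti-phospho-MBP antibody, read 665/615 nm after 60 min.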

A further experiment deals with T3, CDK5/p25 (Homo sapiens, UniProt Q00535).
T3 construct: purchased Invitrogen PR8543B
T3 sequence (Q00535 whole entry): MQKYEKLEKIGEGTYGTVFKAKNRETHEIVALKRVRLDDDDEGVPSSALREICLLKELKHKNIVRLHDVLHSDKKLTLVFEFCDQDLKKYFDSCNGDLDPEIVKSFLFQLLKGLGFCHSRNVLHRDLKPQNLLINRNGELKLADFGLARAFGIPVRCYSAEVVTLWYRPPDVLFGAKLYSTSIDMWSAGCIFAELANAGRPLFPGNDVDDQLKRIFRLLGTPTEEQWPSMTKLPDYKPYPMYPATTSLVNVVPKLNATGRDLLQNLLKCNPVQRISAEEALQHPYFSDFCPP
T3 sequence (Q15078 99-307 partner limits assumed): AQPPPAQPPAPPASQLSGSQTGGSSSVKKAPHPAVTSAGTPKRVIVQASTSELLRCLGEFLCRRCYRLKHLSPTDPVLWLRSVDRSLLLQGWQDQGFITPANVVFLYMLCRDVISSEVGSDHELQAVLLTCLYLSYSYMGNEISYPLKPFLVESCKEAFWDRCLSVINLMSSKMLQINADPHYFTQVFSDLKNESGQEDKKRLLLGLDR
Briefly: Enzymatic assay for CDK5 (FRET based LANCE Ultra kinase assay). The format is biochemical. The following applies: read-out: CDK5 enzymatic activity (IC50 range). In outline: as §3

In another experiment the test system is HCT116. Briefly: Cellular HCT116 viability assay (CellTiter-Glo, 72 hours). Format: cell-based. To be noted: Homo sapiens, HCT-116. In outline:
as §1

The next experiment concerns H460. Briefly: Cellular H460 viability assay (CellTiter-Glo, 72 hours). The format is cell-based. To be noted: Homo sapiens, NCI-H460. The procedure, abridged: as §1
The next experiment deals with T4, CDK2/Cyclin A (Homo sapiens, UniProt P24941).
T4 construct: purchased Invitrogen PV6290
In words: Enzymatic assay for CDK2 (FRET based LANCE Ultra kinase assay). To be noted: read-out: CDK2 enzymatic activity (IC50 range). The format is biochemical. The procedure, abridged: as §3

The subject of another experiment is MOLT-4. In words: Cellular MOLT-4 viability assay (CellTiter-Glo, 72 hours). The format is cell-based. The following applies: Homo sapiens, MOLT4 viability assay. The procedure, abridged: as §1

T1 sequence (P50613 whole entry): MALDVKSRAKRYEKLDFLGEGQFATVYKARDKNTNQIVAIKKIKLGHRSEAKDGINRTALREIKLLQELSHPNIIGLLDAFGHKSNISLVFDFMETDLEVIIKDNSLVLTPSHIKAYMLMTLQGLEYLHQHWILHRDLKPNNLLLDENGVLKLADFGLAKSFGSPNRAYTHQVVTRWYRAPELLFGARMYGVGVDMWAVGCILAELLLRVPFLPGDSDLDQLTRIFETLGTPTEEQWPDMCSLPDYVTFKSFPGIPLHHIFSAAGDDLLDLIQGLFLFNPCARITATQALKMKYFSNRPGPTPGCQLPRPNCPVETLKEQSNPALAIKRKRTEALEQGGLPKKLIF
T1 sequence (P51946 whole entry partner): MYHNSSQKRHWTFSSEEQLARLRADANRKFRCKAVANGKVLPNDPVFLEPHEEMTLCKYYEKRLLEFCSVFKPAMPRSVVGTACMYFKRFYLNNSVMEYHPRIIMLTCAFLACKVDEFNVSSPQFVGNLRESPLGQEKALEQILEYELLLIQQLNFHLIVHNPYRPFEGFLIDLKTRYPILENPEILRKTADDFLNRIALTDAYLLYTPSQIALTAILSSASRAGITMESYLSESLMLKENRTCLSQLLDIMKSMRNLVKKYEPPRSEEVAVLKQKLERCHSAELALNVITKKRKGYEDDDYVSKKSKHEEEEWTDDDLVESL
T1 sequence (P51948 whole entry partner): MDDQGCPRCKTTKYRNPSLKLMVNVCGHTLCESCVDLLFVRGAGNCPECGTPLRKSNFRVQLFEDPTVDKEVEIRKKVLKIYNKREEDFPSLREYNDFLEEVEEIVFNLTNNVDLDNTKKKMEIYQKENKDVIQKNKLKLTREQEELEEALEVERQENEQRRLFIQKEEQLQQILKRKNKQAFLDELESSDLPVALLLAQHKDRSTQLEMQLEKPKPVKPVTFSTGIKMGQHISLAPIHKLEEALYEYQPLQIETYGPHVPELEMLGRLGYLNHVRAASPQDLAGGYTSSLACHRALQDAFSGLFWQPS
T2 sequence (P06493 whole entry): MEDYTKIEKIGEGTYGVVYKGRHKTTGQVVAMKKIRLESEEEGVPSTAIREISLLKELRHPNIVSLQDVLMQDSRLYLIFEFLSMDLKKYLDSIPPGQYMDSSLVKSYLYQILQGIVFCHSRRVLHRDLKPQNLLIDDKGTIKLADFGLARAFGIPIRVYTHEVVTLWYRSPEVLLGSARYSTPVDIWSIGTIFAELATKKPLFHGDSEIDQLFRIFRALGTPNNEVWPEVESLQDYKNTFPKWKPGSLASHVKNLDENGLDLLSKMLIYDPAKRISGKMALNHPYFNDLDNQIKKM
T2 sequence (P14635 whole entry partner): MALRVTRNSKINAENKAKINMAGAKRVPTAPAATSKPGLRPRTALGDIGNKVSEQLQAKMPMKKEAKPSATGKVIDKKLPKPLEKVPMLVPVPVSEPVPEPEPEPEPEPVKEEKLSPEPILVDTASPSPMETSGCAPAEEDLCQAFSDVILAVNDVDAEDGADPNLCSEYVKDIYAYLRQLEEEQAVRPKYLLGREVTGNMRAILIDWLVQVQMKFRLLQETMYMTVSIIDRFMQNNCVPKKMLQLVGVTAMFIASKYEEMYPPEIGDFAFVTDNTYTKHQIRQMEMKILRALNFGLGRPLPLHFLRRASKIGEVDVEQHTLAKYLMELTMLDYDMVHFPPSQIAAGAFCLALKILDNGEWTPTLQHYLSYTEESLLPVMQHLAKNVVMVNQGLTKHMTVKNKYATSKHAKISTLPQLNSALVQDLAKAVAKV

For orientation: IC50 means the concentration that inhibits the measured activity by half. For `CC(C)c1cnn2c(NCc3c(Cl)cccc3-c3cc4ccccc4[nH]3)nc(N3CCC(N)CC3)nc12` [Compound 182], the concentration for half-maximal inhibition (IC50) with OVCAR-3 was 1 to 10 µM; at CDK7/Cyclin H/MNAT1, below 0.1 µM; in the experiment with RPMI-8226, below 1 µM; with MM.1S, at most 1 µM; with A2780 it was at most 1 µM; with MV4-11, below 1 µM. In addition, the IC50 on CDK1/Cyclin B was above 1 µM; at CDK5/p25, above 1 µM; in the experiment with HCT116 it was below 1 µM; with H460, below 1 µM; on CDK2/Cyclin A, above 1 µM. For the same compound, the “CDK1/CDK7: Selectivity of CDK7 inhibition over CDK1 inhibition” value on CDK7/Cyclin H/MNAT1 is reported as “A (A=greater than 200 fold)”. Also, the “CDK2/CDK7: Selectivity of CDK7 inhibition over CDK2 inhibition” value at CDK7/Cyclin H/MNAT1 was “A (A=greater than 200 fold)”. Moreover, the “CDK5/CDK7: Selectivity of CDK7 inhibition over CDK5 inhibition” value on CDK7/Cyclin H/MNAT1 was “A (A=greater than 200 fold)”.

With `CC(C)c1cnn2c(NCc3c(Cl)cccc3-c3ccc4ccccc4n3)nc(N3CCC(N)CC3)nc12` [Compound 194], the IC50 is 1 to 10 µM in the experiment on OVCAR-3; below 0.1 µM on CDK7/Cyclin H/MNAT1; at most 1 µM in the experiment on MM.1S; at most 1 µM in the experiment with A2780; below 1 µM with MV4-11; above 1 µM on CDK1/Cyclin B. For the same compound, the half-maximal inhibitory concentration (IC50) on CDK5/p25 was above 1 µM; in the experiment on HCT116, below 1 µM; in the experiment with H460 it was below 1 µM; at CDK2/Cyclin A, above 1 µM. Also, the “CDK1/CDK7: Selectivity of CDK7 inhibition over CDK1 inhibition” value on CDK7/Cyclin H/MNAT1 is recorded as “A (A=greater than 200 fold)”. Besides, at CDK7/Cyclin H/MNAT1, the “CDK2/CDK7: Selectivity of CDK7 inhibition over CDK2 inhibition” value is “A (A=greater than 200 fold)”. The “CDK5/CDK7: Selectivity of CDK7 inhibition over CDK5 inhibition” value at CDK7/Cyclin H/MNAT1 was “A (A=greater than 200 fold)”.

As to `CC(C)c1cnn2c(N[C@@H](C)c3ccccc3-n3cc4ccccc4n3)nc(N3CCC(N)CC3)nc12` [Compound 183], the 50% inhibitory concentration (IC50) in the experiment with OVCAR-3 was 1 to 10 µM; on CDK7/Cyclin H/MNAT1, below 0.1 µM; in the experiment on MM.1S it was at most 1 µM; in the experiment with A2780, at most 1 µM; in the experiment on MV4-11, below 1 µM; on CDK1/Cyclin B, above 1 µM. For the same compound, the IC50 was above 1 µM on CDK5/p25, below 1 µM in the experiment with HCT116, below 1 µM with H460 and above 1 µM on CDK2/Cyclin A. Besides, the “CDK1/CDK7: Selectivity of CDK7 inhibition over CDK1 inhibition” value on CDK7/Cyclin H/MNAT1 was “A (A=greater than 200 fold)”. At CDK7/Cyclin H/MNAT1, the “CDK2/CDK7: Selectivity of CDK7 inhibition over CDK2 inhibition” value is listed as “A (A=greater than 200 fold)”. Also, at CDK7/Cyclin H/MNAT1, the “CDK5/CDK7: Selectivity of CDK7 inhibition over CDK5 inhibition” value was “A (A=greater than 200 fold)”.

Turning to `CC(C)c1cnn2c(NCc3ccccc3-n3cccn3)nc(-c3cccc(OC4CCNC4)c3)nc12` (racemic) [Compound 163], the half-maximal inhibitory concentration (IC50) is 1 to 10 µM in the experiment with OVCAR-3; below 0.1 µM on CDK7/Cyclin H/MNAT1; at most 1 µM in the experiment with MM.1S; at most 1 µM in the experiment on A2780; below 1 µM in the experiment on MV4-11; above 1 µM on CDK1/Cyclin B. Moreover, the values for the IC50 on CDK5/p25, in the experiment with H460 and on CDK2/Cyclin A were 0.1 to 1 µM, below 1 µM and 0.1 to 1 µM, respectively. The “CDK1/CDK7: Selectivity of CDK7 inhibition over CDK1 inhibition” value on CDK7/Cyclin H/MNAT1 is “A (A=greater than 200 fold)”. The “CDK2/CDK7: Selectivity of CDK7 inhibition over CDK2 inhibition” value on CDK7/Cyclin H/MNAT1 is recorded as “B (B=less than 200 fold, but greater than 20 fold)”. In addition, the “CDK5/CDK7: Selectivity of CDK7 inhibition over CDK5 inhibition” value on CDK7/Cyclin H/MNAT1 was “B (B=less than 200 fold, but greater than 20 fold)”.

For the compound `CC(C)c1cnn2c(NCc3ccccc3-c3ccc4ccccc4n3)nc(N3CCC(N)CC3)nc12` [Compound 48], the concentration for half-maximal inhibition (IC50) is 1 to 10 µM with OVCAR-3; below 0.1 µM on CDK7/Cyclin H/MNAT1; below 1 µM with RPMI-8226; at most 1 µM in the experiment with MM.1S; at most 1 µM in the experiment on A2780; 1 to 10 µM in the experiment on MOLT-4. Besides, the IC50 in the experiment on MV4-11 is below 1 µM; on CDK1/Cyclin B it was above 1 µM; at CDK5/p25, 0.1 to 1 µM; in the experiment with HCT116 it was below 1 µM; in the experiment with H460, below 1 µM; at CDK2/Cyclin A, above 1 µM. Moreover, the “CDK1/CDK7: Selectivity of CDK7 inhibition over CDK1 inhibition” value on CDK7/Cyclin H/MNAT1 is given as “A (A=greater than 200 fold)”. In addition, the “CDK2/CDK7: Selectivity of CDK7 inhibition over CDK2 inhibition” value at CDK7/Cyclin H/MNAT1 is “A (A=greater than 200 fold)”. Further, the “CDK5/CDK7: Selectivity of CDK7 inhibition over CDK5 inhibition” value at CDK7/Cyclin H/MNAT1 is reported as “B (B=less than 200 fold, but greater than 20 fold)”.
